Assay results from article PMC11191095, “QSAR Reveals Decreased Lipophilicity of Polar Residues Determines the Selectivity of Antimicrobial Peptide Activity” (ACS Omega, 2024).
Where a SMILES comes first, the peptide text is derived from it.

Legend:
Experiment in all cases: microbe, parasite or virus in culture
E. coli LEC001 = assay type: cell-based, Escherichia coli
Procedure, shortened: (§1)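 Peptides 128→2 μg/mL, 2-fold series; inoculum ~5 × 10^5 CFU/mL from overnight culture (OD600 0.01, mixed 1:1). MHB non-cation-adjusted for bacteria, RPMI 1640 + 2% glucose for fungi. 37 °C, 20 h, OD600. MIC50/MIC90 at 50%/90% inhibition; n ≥ 3.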

E. coli NCTC 12923 = assay type: cell-based, Escherichia coli
Procedure, shortened: as §1

P. aeruginosa NCTC 13437 = assay type: cell-based, Pseudomonas aeruginosa; details: P. aeruginosa NCTC 13437 (R)
Procedure, shortened: as §1

A. baumannii ATCC 17978 = assay type: cell-based, Acinetobacter baumannii
Procedure, shortened: as §1

A. baumannii AYE = assay type: cell-based, Acinetobacter baumannii; details: A. baumannii AYE (R)
Procedure, shortened: as §1

K. pneumoniae M6 = assay type: cell-based, Klebsiella pneumoniae
Procedure, shortened: as §1

K. pneumoniae NCTC 13368 = assay type: cell-based, Klebsiella pneumoniae; details: K. pneumoniae NCTC 13368 (R)
Procedure, shortened: as §1

S. aureus (MRSA) 1199B = assay type: cell-based, Staphylococcus aureus; details: S. aureus (MRSA) 1199B (R)
Procedure, shortened: as §1

[1] = system: S. aureus (MRSA) NCTC 13616; assay type: cell-based, Staphylococcus aureus; details: S. aureus (MRSA) NCTC 13616 (R)
Procedure, shortened: as §1

S. aureus (MRSA) USA300 = assay type: cell-based, Staphylococcus aureus; details: S. aureus (MRSA) USA300 (R)
Procedure, shortened: as §1

[2] = system: S. aureus (MSSA) ATCC 9144; assay type: cell-based, Staphylococcus aureus
Procedure, shortened: as §1

C. auris TDG 1912 = assay type: cell-based, Candida auris
Procedure, shortened: as §1

C. albicans NCPF 3281 = assay type: cell-based
Procedure, shortened: as §1

C. glabrata NCPF 8018 = assay type: cell-based
Procedure, shortened: as §1

C. krusei NCPF 3876 = assay type: cell-based
Procedure, shortened: as §1

[3] = system: C. parapsilosis NCPF 3209; assay type: cell-based
Procedure, shortened: as §1

[4] = E. coli LEC001 (R), MHB, 37 °C, 20 h, OD600, min. three biological repeats
[5] = E. coli NCTC 12923 (S), MHB, ~5×10^5 CFU/mL, 37 °C, 20 h, OD600, min. three biological repeats
[6] = MHB, 37 °C, 20 h, OD600, min. three biological repeats
[7] = A. baumannii ATCC 17978 (S), MHB, 37 °C, 20 h, OD600, min. three biological repeats
[8] = K. pneumoniae M6 (S), MHB, 37 °C, 20 h, OD600, min. three biological repeats
[9] = S. aureus (MSSA) ATCC 9144 (S), MHB, 37 °C, 20 h, OD600, min. three biological repeats
[10] = C. albicans NCPF 3281, 50% growth inhibition, RPMI 1640 + 2% glucose, 37 °C, 20 h
[11] = C. albicans NCPF 3281, 90% growth inhibition, RPMI 1640 + 2% glucose, 37 °C, 20 h
[12] = C. albicans NCPF 3281, shown in µM
[13] = C. glabrata NCPF 8018, 50% growth inhibition, RPMI 1640 + 2% glucose, 37 °C, 20 h
[14] = C. glabrata NCPF 8018, 90% growth inhibition, RPMI 1640 + 2% glucose, 37 °C, 20 h
[15] = C. glabrata NCPF 8018, shown in µM
[16] = C. krusei NCPF 3876, 50% growth inhibition, RPMI 1640 + 2% glucose, 37 °C, 20 h
[17] = C. krusei NCPF 3876, 90% growth inhibition, RPMI 1640 + 2% glucose, 37 °C, 20 h
[18] = C. krusei NCPF 3876, shown in µM
[19] = C. parapsilosis NCPF 3209, 50% growth inhibition, RPMI 1640 + 2% glucose, 37 °C, 20 h
[20] = C. parapsilosis NCPF 3209, 90% growth inhibition, RPMI 1640 + 2% glucose, 37 °C, 20 h
[21] = C. parapsilosis NCPF 3209, shown in µM

C[C@H](NC(=O)CNC(=O)[C@H](CCCCN)NC(=O)[C@@H](N)CS)C(=O)N[C@@H](Cc1ccccc1)C(=O)N[C@@H](CCCCN)C(=O)N[C@@H](CCC(N)=O)C(=O)N[C@H](C(=O)N[C@@H](CS)C(=O)N[C@@H](CCCCN)C(=O)N[C@@H](CS)C(=O)N[C@@H](Cc1ccc(O)cc1)C(N)=O)[C@@H](C)O [Os(11-22)a] (H-CKGAFKQTCKCY-NH2; N-terminus assumed)
> 91.7 µM: Modal MIC (E. coli LEC001; E. coli LEC001 (R), shown in µM) | Modal MIC (E. coli NCTC 12923; E. coli NCTC 12923 (S), shown in µM) | Modal MIC (P. aeruginosa NCTC 13437; shown in µM) | Modal MIC (A. baumannii ATCC 17978; A. baumannii ATCC 17978 (S), shown in µM) | Modal MIC (A. baumannii AYE; shown in µM) | Modal MIC (K. pneumoniae M6; K. pneumoniae M6 (S), shown in µM) | Modal MIC (K. pneumoniae NCTC 13368; shown in µM) | Modal MIC (S. aureus (MRSA) 1199B; shown in µM) | Modal MIC ([1]; shown in µM) | Modal MIC (S. aureus (MRSA) USA300; shown in µM) | Modal MIC ([2]; S. aureus (MSSA) ATCC 9144 (S), shown in µM) | Modal MIC50 (C. auris TDG 1912; C. auris TDG 1912, shown in µM) | Modal MIC90 (C. auris TDG 1912; C. auris TDG 1912, shown in µM) | Modal MIC50 (C. albicans NCPF 3281; [12]) | Modal MIC90 (C. albicans NCPF 3281; [12]) | Modal MIC50 (C. glabrata NCPF 8018; [15]) | Modal MIC90 (C. glabrata NCPF 8018; [15]) | Modal MIC50 (C. krusei NCPF 3876; [18]) | Modal MIC90 (C. krusei NCPF 3876; [18]) | Modal MIC50 [3, 21] | Modal MIC90 [3, 21]
> 128 µg/mL: Modal MIC (E. coli LEC001; [4]) | Modal MIC (E. coli NCTC 12923; [5]) | Modal MIC (P. aeruginosa NCTC 13437; [6]) | Modal MIC (A. baumannii ATCC 17978; [7]) | Modal MIC (A. baumannii AYE; [6]) | Modal MIC (K. pneumoniae M6; [8]) | Modal MIC (K. pneumoniae NCTC 13368; [6]) | Modal MIC (S. aureus (MRSA) 1199B; [6]) | Modal MIC [1, 6] | Modal MIC (S. aureus (MRSA) USA300; [6]) | Modal MIC [2, 9] | Modal MIC50 (C. auris TDG 1912; C. auris TDG 1912, 50% growth inhibition, RPMI 1640 + 2% glucose, 37 °C, 20 h, OD600) | Modal MIC90 (C. auris TDG 1912; C. auris TDG 1912, 90% growth inhibition, RPMI 1640 + 2% glucose, 37 °C, 20 h, OD600) | Modal MIC50 (C. albicans NCPF 3281; [10]) | Modal MIC90 (C. albicans NCPF 3281; [11]) | Modal MIC50 (C. glabrata NCPF 8018; [13]) | Modal MIC90 (C. glabrata NCPF 8018; [14]) | Modal MIC50 (C. krusei NCPF 3876; [16]) | Modal MIC90 (C. krusei NCPF 3876; [17]) | Modal MIC50 [3, 19] | Modal MIC90 [3, 20]

CC(C)[C@H](NC(=O)CNC(=O)[C@H](CCCNC(=N)N)NC(=O)[C@H](CCCNC(=N)N)NC(=O)[C@H](CS)NC(=O)[C@@H](NC(=O)[C@H](CS)NC(=O)[C@@H](N)CCCNC(=N)N)C(C)C)C(=O)N[C@@H](CS)C(=O)N[C@@H](CCCNC(=N)N)C(=O)N[C@@H](CS)C(=O)N[C@H](C(=O)N[C@@H](CS)C(=O)N[C@@H](CCCNC(=N)N)C(=O)N[C@@H](CCCNC(=N)N)C(N)=O)C(C)C [BTD15a] (H-RCVCRRGVCRCVCRR-NH2; N-terminus assumed)
4.4 µM: Modal MIC (E. coli NCTC 12923; NCTC 12923, 20 h) | Modal MIC (A. baumannii AYE; shown in µM) | Modal MIC (S. aureus (MRSA) 1199B; shown in µM) | Modal MIC ([1]; shown in µM) | Modal MIC (S. aureus (MRSA) USA300; shown in µM) | Modal MIC ([2]; ATCC 9144, 20 h)
4 µg/mL: Modal MIC (A. baumannii ATCC 17978; [7])
> 128 µg/mL: Modal MIC (P. aeruginosa NCTC 13437; [6])
> 70.2 µM: Modal MIC (P. aeruginosa NCTC 13437; shown in µM) | Modal MIC50 (C. auris TDG 1912; TDG 1912, 20 h) | Modal MIC90 (C. auris TDG 1912; TDG 1912, 20 h)
8.8 µM: Modal MIC (E. coli LEC001; LEC001, 20 h) | Modal MIC50 (C. krusei NCPF 3876; NCPF 3876, 20 h) | Modal MIC90 (C. krusei NCPF 3876; NCPF 3876, 20 h)
128 µg/mL: Modal MIC50 (C. glabrata NCPF 8018; [13]) | Modal MIC90 (C. glabrata NCPF 8018; [14]) | Modal MIC50 [3, 19] | Modal MIC90 [3, 20]
8 µg/mL: Modal MIC (E. coli NCTC 12923; [5]) | Modal MIC (A. baumannii AYE; [6]) | Modal MIC (S. aureus (MRSA) 1199B; [6]) | Modal MIC [1, 6] | Modal MIC (S. aureus (MRSA) USA300; [6]) | Modal MIC [2, 9]
32 µg/mL: Modal MIC (K. pneumoniae M6; [8]) | Modal MIC (K. pneumoniae NCTC 13368; [6]) | Modal MIC50 (C. albicans NCPF 3281; [10])
64 µg/mL: Modal MIC90 (C. albicans NCPF 3281; [11])
35 µM: Modal MIC90 (C. albicans NCPF 3281; NCPF 3281, 20 h)
70.2 µM: Modal MIC50 (C. glabrata NCPF 8018; NCPF 8018, 20 h) | Modal MIC90 (C. glabrata NCPF 8018; NCPF 8018, 20 h) | Modal MIC50 ([3]; NCPF 3209, 20 h) | Modal MIC90 ([3]; NCPF 3209, 20 h)
17.5 µM: Modal MIC (K. pneumoniae M6; M6, 20 h) | Modal MIC (K. pneumoniae NCTC 13368; shown in µM) | Modal MIC50 (C. albicans NCPF 3281; NCPF 3281, 20 h)
2.2 µM: Modal MIC (A. baumannii ATCC 17978; ATCC 17978, 20 h)
16 µg/mL: Modal MIC (E. coli LEC001; [4]) | Modal MIC50 (C. krusei NCPF 3876; [16]) | Modal MIC90 (C. krusei NCPF 3876; [17])
